Measurements reported in patent US20090291923A1, “TRIOXANE DIMERS HAVING HIGH ANTICANCER AND LONG-LASTING ANTIMALARIAL ACTIVITIES” (priority 2005, published 2009).
Converted amounts (≈) assume the structure as drawn. Read-outs that look alike come from different tables or passages of the source.

Columns and labels:
[1] = test system: chloroquine-sensitive Plasmodium falciparum (NF 54) parasites; assay: in vitro antimalarial potency, standard assay; type: cell-based; conditions: for IC50: Plasmodium falciparum, read-out: IC50 (nM), Antimalarial Activities in vitro
[2] = test system: panel of 60 human cancer cell lines; assay: NCI panel of 60 human cancer cell lines, growth inhibition; type: cell-based; conditions: nanomolar to micromolar concentrations
From the text: Cell growth was inhibited in a dose-dependent manner.

[3] = test system: human cervical cancer cell line HeLa; assay: XTT proliferation / cell viability assay, HeLa; type: cell-based; conditions: for IC50: Homo sapiens, XTT based assay, read-out: IC50, HeLa cells
[4] = test system: normal ectocervical cells HCX (primary normal cervical cells); assay: XTT cell viability assay, normal cervical cells; type: cell-based, human
Experimental: Primary human ectocervical keratinocytes were derived from fresh cervical tissue obtained from the Cooperative Human Tissue Network (CHTN) within 24 hours after removal from patients undergoing hysterectomies for benign non-cervical uterine diseases. Standard overnight dispase treatment and subsequent trypsinization procedures were used to isolate ectocervical epithelial cells, which were cultured in serum-free keratinocyte medium (KSFM) supplemented with bovine pituitary extract and epidermal growth factor according to the manufacturer's protocol (Invitrogen, Carlsbad, Calif.). […]
(§1) Cell viability was determined using 2.5×10^3 cells were plated in triplicates in 96 well tissue culture microplates in the appropriate culture medium and incubated for 24 hours in a humidified atmosphere at 37° C., 5% CO2. […] Cell viability (absorbance) was measured using an ELISA reader at 450 nm with a reference wavelength at 650 nm. Results were calculated as the percentage of cultures exposed to solvent control only. […]
as §1, with “2.5×10^3” for “Cell viability was determined using 2.5×10^3”

GFP strain P. berghei = assay: in vivo antimalarial ED50 in mice, single administration SC or PO; conditions: for ED50: Plasmodium berghei, in Mus musculus; for overt toxicity / behavioral modification in the mice: single dose of 3, 10 or 30 mg/kg SC or PO
[5] = test system: Plasmodium berghei infected mice; type: in vivo
[6] = test system: malaria-infected mice (GFP strain P. berghei); assay: oral in vivo antimalarial activity in malaria-infected mice, three doses over three days
[7] = solubility in aqueous pH 7.4 buffer; type: physicochemical; conditions: aqueous pH 7.4 buffer solution, pH 7.4, 25° C.
[8] = chloroquine-sensitive P. falciparum NF 54, quadruplicates

**Q.** For `C[C@@H]1CC[C@H]2[C@@H](C)C(=O)O[C@@H]3O[C@]4(C)CC[C@@H]1[C@]32OO4` [Artemisinin, artemisinin, reference compound], which IC50 [1, 8] is on record?
**A.** The IC50 was 6.6 ± 0.76 nM.

**Q.** Which IC50 [1] does the source give for `C[C@H]1[C@@H](CCc2cc3c(cc2CC[C@H]2O[C@@H]4O[C@@]5(C)CC[C@H]6[C@H](C)CC[C@@H]([C@H]2C)[C@@]46OO5)COP(=O)(Oc2ccccc2)OC3)O[C@@H]2O[C@@]3(C)CC[C@H]4[C@H](C)CC[C@@H]1[C@@]24OO3` (some centres unmarked) [dimer 9] here?
**A.** Its IC50 is 3.7 nM.

**Q.** Which results are given for `COC(=O)c1cc(CC[C@H]2O[C@@H]3O[C@@]4(C)CC[C@H]5[C@H](C)CC[C@@H]([C@H]2C)[C@@]35OO4)c(CC[C@H]2O[C@@H]3O[C@@]4(C)CC[C@H]5[C@H](C)CC[C@@H]([C@H]2C)[C@@]35OO4)cc1C(=O)OC` [dimer 5]?
**A.** IC50 [1, 8]: 1.6 nM; preliminary growth inhibitory activity, selectivity in the panel [2]: extremely selective and highly potent at inhibiting the growth of only non-small cell lung carcinoma HOP-92 cells, melanoma SK-MEL-5 cells, and breast cancer BT-549 cells; times more potent than trioxane monomer DHA [3]: 10-20 times; IC50 [3]: 500 nM; toxicity to primary normal cervical cells [4]: without being toxic; ED50 (GFP strain P. berghei; sc, read-out: SC ED50): 0.71 mg/kg; overt toxicity / behavioral modification in the mice (GFP strain P. berghei): Neither over toxicity nor behavioral modification was observed

**Q.** For `C[C@H]1[C@H](OC(=O)CCC(=O)[O-])O[C@@H]2O[C@@]3(C)CC[C@H]4[C@H](C)CC[C@@H]1[C@@]24OO3.[Na+]` [sodium artesunate], which “life of the mice prolonged to” value ([5]; 30 mg/kg single dose, no drug 7 days) is on record?
**A.** The value was 14 days.

**Q.** And the malaria parasites killed ([5]; single dose 30 mg/kg, subcutaneous)?
**A.** Its malaria parasites killed is “similarly efficacious”.

**Q.** What about the “Avg Mouse Survival (oral, 3 × 10 mg/kg)” value [6] of the same compound?
**A.** The value was 6.7.

**Q.** And the “PO ED50” value (GFP strain P. berghei; mice, single administration, oral)?
**A.** Its value is 4.0 mg/kg.

**Q.** And the “SC ED50” value (GFP strain P. berghei; mice, single administration, subcutaneous)?
**A.** The value was 2.2 mg/kg.

**Q.** With `C=C(CC[C@H]1O[C@@H]2O[C@@]3(C)CC[C@H]4[C@H](C)CC[C@@H]([C@H]1C)[C@@]24OO3)C(=C)CC[C@H]1O[C@@H]2O[C@@]3(C)CC[C@H]4[C@H](C)CC[C@@H]([C@H]1C)[C@@]24OO3` [dimer 4] as the compound, how does the IC50 [1, 8] read?
**A.** Its IC50 is 2.9 nM.

**Q.** What does the source list for `C[C@H]1[C@@H](CCc2cc(CO)c(CO)cc2CC[C@H]2O[C@@H]3O[C@@]4(C)CC[C@H]5[C@H](C)CC[C@@H]([C@H]2C)[C@@]35OO4)O[C@@H]2O[C@@]3(C)CC[C@H]4[C@H](C)CC[C@@H]1[C@@]24OO3` [dimer 7]?
**A.** IC50 [1, 8]: 0.77 nM; times more antimalarially active than artemisinin ([1]; in vitro, P. falciparum NF 54): approximately 10 times; times more potent than trioxane monomer DHA [3]: 110-220 times; IC50 [3]: 46.5 nM; toxicity to primary normal cervical cells [4]: without being toxic; ED50 (GFP strain P. berghei; po, read-out: PO ED50): 2.6 mg/kg; ED50 (GFP strain P. berghei; sc, read-out: SC ED50): 0.06 mg/kg; times more efficacious than sodium artesunate administered PO (GFP strain P. berghei; mice, PO): approximately 1.5 times; overt toxicity / behavioral modification in the mice (GFP strain P. berghei): Neither over toxicity nor behavioral modification was observed

**Q.** Which IC50 [1, 8] does the source give for `C[C@H]1[C@@H](CCc2cc(C(=O)O)c(C(=O)O)cc2CC[C@H]2O[C@@H]3O[C@@]4(C)CC[C@H]5[C@H](C)CC[C@@H]([C@H]2C)[C@@]35OO4)O[C@@H]2O[C@@]3(C)CC[C@H]4[C@H](C)CC[C@@H]1[C@@]24OO3` [dimer 6] here?
**A.** The IC50 was 360 nM.

**Q.** And the solubility [7]?
**A.** Its solubility is roughly 14 mg/mL (≈ 18.5 mM).
